Source: patent publication US11186564B2, “Dual NAV1.2/5HT2a inhibitors for treating CNS disorders” (Sunovion Pharmaceuticals Inc., priority 2016, dated 2021)
Like-named read-outs stand apart in the source and are kept apart here.

Target: T1, recombinant human serotonin receptor 5-HT2A (Homo sapiens, UniProt P28223)
T1 construct: expressed in transfected cells; method B: loaded with Ca2+ dye
Experiment: 5-HT2A antagonist Ca2+ assay in CHO-K1 cells (method A aequorin luminescence / method B FLIPR fluorescence)
Assay type: cell-based
Conditions: antagonist mode vs EC80 of reference agonist, method A or B
Excerpt: The methods utilized to assess the inhibitory activity of compounds on recombinant human serotonin receptor 5-HT2A was based upon previously published approaches [Jerman J C, Brough S J, Gager T, Wood M, Coldwell M C, Smart D, Middlemiss D N. Pharmacological characterisation of human 5-HT2 receptor subtypes. European Journal of Pharmacology 2001 Feb. 23; 414(1):23-30; Le Poul E, Hisada S, Mizuguchi Y, Dupriez V J, Burgeon E, Detheux M. Adaptation of aequorin functional assay to high throughput screening. J Biomolecular Screening 2002 February; 7(1):57-65.] The 5-HT2A receptor signals through Gq-phospholipase signaling cascade, which leads to a transient increase in free intracellular […] concentration. Both 5-HT2A assay methods rely upon monitoring these changes in Ca^2+ concentration.
In method A [Le Poul E, Hisada S, Mizuguchi Y, Dupriez V J, Burgeon E, Detheux M. (2002)], CHO-K1 cells engineered to stably co-express both recombinant human 5-HT2A and mitochondrial apoaequorin are used. […] For agonist testing, 50 microliters of cell suspension is mixed with 50 microliters of a solution containing test compound or reference agonist in a 96-well standard geometry microtiter plate. The resulting emission of light was recorded using a Hamamatsu Functional Drug Screening System 6000 (FDSS 6000) luminometer. For antagonist testing, 100 microliters of the solution of reference agonist (to yield an agonist concentration, EC80, sufficient to cause the cells to generate an 80% maximal luminescence response in the absence of any antagonist) is injected into the mix of cells and test compound, 15 minutes after the first injection. The resulting emission of light is recorded using Hamamatsu FDSS 6000 luminometer. IC50 values are calculated (from compound concentration dependent inhibition of agonist-induced 5-HT2A-dependent light emission) by non-linear least squares regression of the data (percent inhibition) onto equation (1) above.
In method B [Jerman J C, Brough S J, Gager T, Wood M, Coldwell M C, Smart D, Middlemiss D N. (2001)], CHO-K1 cells which had been engineered to stably co-express recombinant human 5-HT2A are used in assay done similarly to method A. In method B, the cells are loaded with a fluorogenic Ca^2+ indicator dye by pre-incubation. Addition of the reference agonist serotonin causes a transient increase in fluorescence in a suspension of the loaded cells, which can be detected using the Molecular Devices fluorometric imaging plate reader (FLIPR), a high-throughput platform for 96-well cell-based assays. Addition of test compounds that are 5-HT2A antagonists, prior to the addition of the agonist (to yield an agonist concentration, EC80, sufficient to cause the cells to generate an 80% maximal fluorescence response in the absence of any antagonist), reduces the amount of fluorescence detected by the FLIPR upon agonist addition. IC50 values are calculated (from compound concentration dependent inhibition of agonist-induced 5-HT2A-dependent fluorescence) by non-linear least squares regression of the data (percent inhibition) onto equation (1) above.

T1 sequence (P28223 whole entry): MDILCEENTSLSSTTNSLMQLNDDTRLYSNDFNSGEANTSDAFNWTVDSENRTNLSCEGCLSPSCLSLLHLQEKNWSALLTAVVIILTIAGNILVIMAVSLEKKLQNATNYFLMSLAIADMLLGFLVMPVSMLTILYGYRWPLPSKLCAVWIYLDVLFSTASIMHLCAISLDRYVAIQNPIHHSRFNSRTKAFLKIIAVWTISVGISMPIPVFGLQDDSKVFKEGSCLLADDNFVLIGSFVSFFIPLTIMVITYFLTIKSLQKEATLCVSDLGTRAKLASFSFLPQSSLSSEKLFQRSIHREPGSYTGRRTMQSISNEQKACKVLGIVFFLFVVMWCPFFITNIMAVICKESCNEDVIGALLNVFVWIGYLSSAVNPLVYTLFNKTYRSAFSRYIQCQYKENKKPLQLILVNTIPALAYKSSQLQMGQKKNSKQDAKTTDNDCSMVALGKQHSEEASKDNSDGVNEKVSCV

SMILES: COc1ccc2c(c1)C(CN1CCC[C@H](Oc3ccc(F)cc3)C1)CC2 (stereo partly drawn) [Example 256, (3S)-3-(4-fluorophenoxy)-1-((6-methoxy-2,3-dihydro-1H-inden-1-yl)methyl)piperidine]
- IC50 (read-out: 5HT2A IC50): 3.99 µM

SMILES: c1ccc2c(c1)CC1(CCN(CC3COc4ccccc43)CC1)O2 (stereo not shown) [Example 395, 1′-((2,3-dihydrobenzofuran-3-yl)methyl)-3H-spiro[benzofuran-2,4′-piperidine]]
- IC50 (read-out: 5HT2A IC50): > 10 µM

SMILES: COc1ccccc1O[C@H]1CCN(CCN2CCc3ccccc3C2=O)C1 [Example 14, (S)-2-(2-(3-(2-methoxyphenoxy)pyrrolidin-1-yl)ethyl)-3,4-dihydroisoquinolin-1(2H)-one]
- IC50 (read-out: 5HT2A IC50): 7.47 µM

SMILES: C[C@H]1C[C@@]2(CCc3ccccc3O2)CCN1CCN1CCc2ccccc2C1=O [Example 424, 2-(2-((2R,2′S)-2′-methylspiro[chromane-2,4′-piperidin]-1′-yl)ethyl)-3,4-dihydroisoquinolin-1(2H)-one]
- IC50 (read-out: 5HT2A IC50): 0.05 µM

SMILES: c1ccc(CCN2CCC(Oc3ccccc3)CC2)cc1 [Example 214, 1-phenethyl-4-phenoxypiperidine]
- IC50 (read-out: 5HT2A IC50): 0.04 µM

SMILES: c1ccc(CCN2C[C@@H]3C[C@H](C2)N(c2ccccc2)C3)cc1 [Example 330, (1S,5R)-3-phenethyl-6-phenyl-3,6-diazabicyclo[3.2.1]octane]
- IC50 (read-out: 5HT2A IC50): > 16.7 µM

SMILES: c1ccc(N2C[C@@H]3C[C@H]2CCN3CC2Cc3cccnc3C2)cc1 (stereo partly drawn) [Example 320, 6-(((1S,5R)-6-phenyl-2,6-diazabicyclo[3.2.1]octan-2-yl)methyl)-6,7-dihydro-5H-cyclopenta[b]pyridine]
- IC50 (read-out: 5HT2A IC50): > 10 µM

SMILES: O[C@@H](CO[C@@H]1CCCc2ccccc21)CN1CCN(Cc2ccccc2)CC1 [Example 84, (R)-1-(4-benzylpiperazin-1-yl)-3-(((R)-1,2,3,4-tetrahydronaphthalen-1-yl)oxy)propan-2-ol]
- IC50 (read-out: 5HT2A IC50): > 16.7 µM

SMILES: COc1ccccc1O[C@@H]1CCN(CC2Cc3ccccc3C2)C[C@H]1C [Example 145, (3R,4R)-1-((2,3-dihydro-1H-inden-2-yl)methyl)-4-(2-methoxyphenoxy)-3-methylpiperidine]
- IC50 (read-out: 5HT2A IC50): 0.01 µM

SMILES: c1ccc2c(c1)CC1(CCN(CC3CCc4cccnc43)CC1)O2 (stereo not shown) [Example 394, 1′-((6,7-dihydro-5H-cyclopenta[b]pyridin-7-yl)methyl)-3H-spiro[benzofuran-2,4′-piperidine]]
- IC50 (read-out: 5HT2A IC50): > 10.9 µM

SMILES: OC(COC1CCCCC1)CN1CCC2(CC1)CCN(c1ccccc1)C2 (stereo not shown) [Example 354, 1-(cyclohexyloxy)-3-(2-phenyl-2,8-diazaspiro[4.5]decan-8-yl)propan-2-ol]
- IC50 (read-out: 5HT2A IC50): 1.94 µM

SMILES: O[C@H](COC1CCCCC1)CN1[C@@H]2CC[C@H]1CN(c1ccc(F)cc1)C2 [Example 289, (S)-1-(cyclohexyloxy)-3-((1R,5S)-3-(4-fluorophenyl)-3,8-diazabicyclo[3.2.1]octan-8-yl)propan-2-ol]
- IC50 (5HT2A IC50, μM): 0.02 µM

SMILES: OC(COC1CCCCC1)CN1CCC2(CC1)COc1ccccc12 (stereo not shown) [Example 389, 1-(cyclohexyloxy)-3-(2H-spiro[benzofuran-3,4′-piperidin]-1′-yl)propan-2-ol]
- IC50 (5HT2A IC50, μM): 8.58 µM

SMILES: COc1ccccc1CN1CCC2(CCN(c3ccccc3)C2)C1 (stereo not shown) [Example 342, 2-(2-methoxybenzyl)-7-phenyl-2,7-diazaspiro[4.4]nonane]
- IC50 (read-out: 5HT2A IC50): 2.08 µM

SMILES: O[C@@H](COC1CCCCC1)CN1CC2(CC(Oc3ccccc3)CO2)C1 (stereo partly drawn) [Example 372, (2R)-1-(cyclohexyloxy)-3-(7-phenoxy-5-oxa-2-azaspiro[3.4]octan-2-yl)propan-2-ol]
- IC50 (read-out: 5HT2A IC50): 0.09 µM

SMILES: O[C@H](COC1CCCCC1)CN1[C@@H]2CC[C@H]1CN(c1nccs1)C2 [Example 292, (S)-1-(cyclohexyloxy)-3-((1R,5S)-3-(thiazol-2-yl)-3,8-diazabicyclo[3.2.1]octan-8-yl)propan-2-ol]
- IC50 (read-out: 5HT2A IC50): > 10 µM

SMILES: O=C1CC2(CCN(CC3CCc4ccccc43)CC2)Oc2ccccc21 (stereo not shown) [Example 444, l′-((2,3-dihydro-1H-inden-1-yl)methyl)spiro[chromane-2,4′-piperidin]-4-one]
- IC50 (read-out: 5HT2A IC50): 1.44 µM

SMILES: COc1cccc(O[C@H]2CCN(CC(O)CO[C@@H]3CCc4ccccc43)C2)c1 (stereo partly drawn) [Example 41, 1-(((R)-2,3-dihydro-1H-inden-1-yl)oxy)-3-((S)-3-(3-methoxyphenoxy)pyrrolidin-1-yl)propan-2-ol]
- IC50 (read-out: 5HT2A IC50): 7.13 µM

SMILES: c1ccc2c(c1)COC21CCN(CC2COc3ccccc32)CC1 (stereo not shown) [Example 391, 1′-((2,3-dihydrobenzofuran-3-yl)methyl)-3H-spiro[isobenzofuran-1,4′-piperidine]]
- IC50 (5HT2A IC50, μM): 14.1 µM

SMILES: c1ccc2c(c1)CCC1(CCN(CC3CCc4ncccc43)CC1)O2 (stereo not shown) [Example 407, 1′-((6,7-dihydro-5H-cyclopenta[b]pyridin-5-yl)methyl)spiro[chromane-2,4′-piperidine]]
- IC50 (read-out: 5HT2A IC50): 3.64 µM

SMILES: OC1(CN2CCC[C@H](Oc3ccc(F)cc3)C2)COCc2ccccc21 (stereo partly drawn) [Example 259, 4-(((S)-3-(4-fluorophenoxy)piperidin-1-yl)methyl)isochroman-4-ol]
- IC50 (read-out: 5HT2A IC50): > 13.3 µM

SMILES: COc1ccccc1O[C@@H]1CCN(CCN2CCc3ccccc3C2=O)C1 [Example 13, (R)-2-(2-(3-(2-methoxyphenoxy)pyrrolidin-1-yl)ethyl)-3,4-dihydroisoquinolin-1(2H)-one]
- IC50 (read-out: 5HT2A IC50): 1.93 µM

SMILES: O[C@H](COC1CCCCC1)CN1CC[C@@H]2C[C@H]1CN2c1ccccc1 [Example 326, (S)-1-(cyclohexyloxy)-3-((1S,5R)-6-phenyl-2,6-diazabicyclo[3.2.1]octan-2-yl)propan-2-ol]
- IC50 (read-out: 5HT2A IC50): > 3.16 µM

SMILES: COc1ccccc1N1CCC2(CCN(CC3CCc4cccnc43)C2)C1 (stereo not shown) [Example 336, 2-((6,7-dihydro-5H-cyclopenta[b]pyridin-7-yl)methyl)-7-(2-methoxyphenyl)-2,7-diazaspiro[4.4]nonane]
- IC50 (read-out: 5HT2A IC50): 3.28 µM

SMILES: c1ccc(OCCN2CCC(Oc3ccc4cccnc4c3)CC2)cc1 [Example 231, 7-((1-(2-phenoxyethyl)piperidin-4-yl)oxy)quinoline]
- IC50 (read-out: 5HT2A IC50): 0.79 µM

SMILES: CC(CN1CCc2ccccc2C1=O)N1CCC(Oc2ccc(F)cc2)CC1 (stereo not shown) [Example 204, 2-(2-(4-(4-fluorophenoxy)piperidin-1-yl)propyl)-3,4-dihydroisoquinolin-1(2H)-one]
- IC50 (read-out: 5HT2A IC50): 0.56 µM

SMILES: O[C@H](CO[C@@H]1CCCc2ccccc21)CN1CCN(Cc2ccccc2)CC1 [Example 86, (S)-1-(4-benzylpiperazin-1-yl)-3-(((R)-1,2,3,4-tetrahydronaphthalen-1-yl)oxy)propan-2-ol]
- IC50 (read-out: 5HT2A IC50): > 16.7 µM

SMILES: COc1cccc(OC2CCN(CC3Cc4cccnc4C3)CC2)c1 (stereo not shown) [Example 153, 6-((4-(3-methoxyphenoxy)piperidin-1-yl)methyl)-6,7-dihydro-5H-cyclopenta[b]pyridine]
- IC50 (read-out: 5HT2A IC50): 0.76 µM

SMILES: Fc1ccc(N2CCC3(CCN(CC4Cc5ccncc5C4)C3)C2)cc1 (stereo not shown) [Example 341, 2-((6,7-dihydro-5H-cyclopenta[c]pyridin-6-yl)methyl)-7-(4-fluorophenyl)-2,7-diazaspiro[4.4]nonane]
- IC50 (read-out: 5HT2A IC50): 3.12 µM

SMILES: Fc1ccc(OC2COCCN(CC3Cc4cccnc4C3)C2)cc1 (stereo not shown) [Example 279, 4-((6,7-dihydro-5H-cyclopenta[b]pyridin-6-yl)methyl)-6-(4-fluorophenoxy)-1,4-oxazepane]
- IC50 (read-out: 5HT2A IC50): > 10 µM

SMILES: COc1ccc2c(c1)C(CN1CCC(Oc3cccnc3)CC1)CC2 (stereo not shown) [Example 109, 3-((1-((6-methoxy-2,3-dihydro-1H-inden-1-yl)methyl)piperidin-4-yl)oxy)pyridine]
- IC50 (read-out: 5HT2A IC50): 1.92 µM

SMILES: O[C@@H](COC1CCCCC1)CN1C[C@H]2CC[C@@H](C1)N2c1ccccc1 [Example 301, (R)-1-(cyclohexyloxy)-3-((1R,5S)-8-phenyl-3,8-diazabicyclo[3.2.1]octan-3-yl)propan-2-ol]
- IC50 (read-out: 5HT2A IC50): > 10 µM

SMILES: c1ccc(CCN2C[C@H]3CC[C@@H](C2)N3c2ccccc2)cc1 [Example 298, (1R,5S)-3-phenethyl-8-phenyl-3,8-diazabicyclo[3.2.1]octane]
- IC50 (read-out: 5HT2A IC50): > 11 µM

SMILES: OC(CO[C@H]1CCCc2ccccc21)CN1CC[C@H](Oc2ccc(F)cc2)C1 (stereo partly drawn) [Example 49, 1-((S)-3-(4-fluorophenoxy)pyrrolidin-1-yl)-3-(((S)-1,2,3,4-tetrahydronaphthalen-1-yl)oxy)propan-2-ol]
- IC50 (read-out: 5HT2A IC50): 2.55 µM
